# “Also recorded” adds a separate entry of the source.
# What was measured:
# [1] = Conversion of crystal form on treatment with water; assay type: physicochemical; conditions: for form conversion in heated water: water at 90° C. or 95° C.
# Procedure: Forms II, III, IV and Form VI can all be transformed into Form I by treatment with water, e.g. by heating in water. The water may be at room temperature. The water may be heated to at least about 90° C., and as high as at least about 95° C.
# Form V is the anhydrous form, producing substantially Pattern E in FIGS. 1 and 8 when scanned by XRD, and has the highest transition temperature of all the polymorphic forms, i.e., about 148° C. It is also readily converted to Form I by treatment with heated water. The water is heated to at least about 90° C., and more preferably is heated to at least about 95° C. […] This hydrated form is different from either Form I or V, as shown by the XRD scan in FIG. 4.
# FIG. 3. This is a differential scanning calorimeter (DSC) plot and a theromogravimetric analysis (TGA) plot of Form V after suspension in water for two months and ten days at room temperature.
# [2] = Solubility in water and formulation vehicles
# physchem = conditions: Table 4, (batch size 95, 50, 120, 54, 18.5, 550 g)
# [3] = Solid-state stability on exposure to light, humidity and heat (XRD and HPLC; water loss); assay type: physicochemical
# [4] = Hygroscopicity by dynamic vapor sorption; assay type: physicochemical; conditions: 0% to 90% RH, monohydrate
# Procedure: The hydroscopicity of the anhydrous Form V and the hydrated forms was determined using dyanamic vapor sorption, including the plot for Form I shown in FIG. 2. This was performed under the following conditions. RH was set at 0%, 30%, 52.5%, 75% and 90%, with the sample exposed for 3 hours at each RH for two full cycles.
# [5] = Table 4, (batch size 95, 50, 120, 54, 18.5, 550 g), listed as Pattern D
smiles,measurement,setting,value
"CO.COc1cc(Nc2c(C#N)cnc3cc(OCCCN4CCN(C)CC4)c(OC)cc23)c(Cl)cc1Cl [Form VI, 4-[(2,4-dichloro-5-methoxyphenyl)amino]-6-methoxy-7-[3-(4-methyl-1-piperazinyl)propoxy]-3-quinolinecarbonitrile methanolate]",form conversion in heated water,[1],Converts to “I” in 95 °C
"COc1cc(Nc2c(C#N)cnc3cc(OCCCN4CCN(C)CC4)c(OC)cc23)c(Cl)cc1Cl [Form IV, 4-[(2,4-dichloro-5-methoxyphenyl)amino]-6-methoxy-7-[3-(4-methyl-1-piperazinyl)propoxy]-3-quinolinecarbonitrile]",solubility,"[2]; 2% Tween80/0.5% MC 0.06% acetic acid, aqueous with cosolvent or surfactant or cyclodextrin, Solubility, Table 4, (batch size 95, 50, 120, 54, 18.5, 550 g)",3500 µg/mL
same,solubility,"[2]; 2% Tween 80/03% MC, aqueous with cosolvent or surfactant or cyclodextrin, Solubility, Table 4, (batch size 95, 50, 120, 54, 18.5, 550 g)",70 µg/mL
same,"Solubility, 2% Tween80/0.5% MC 0.06% acetic acid",[2]; [5],2.68 (pH 5.2) mg/mL
same,"Solubility, 2% Tween 80/03% MC",[2]; [5],0.06 (pH 7.8) mg/mL
same,form conversion in heated water,[1]; listed as D,Converts to “I” in 90 °C
"COc1cc(Nc2c(C#N)cnc3cc(OCCCN4CCN(C)CC4)c(OC)cc23)c(Cl)cc1Cl [Form V, 4-[(2,4-dichloro-5-methoxyphenyl)amino]-6-methoxy-7-[3-(4-methyl-1-piperazinyl)propoxy]-3-quinolinecarbonitrile]",form change in water at room temperature,"[1]; suspended in water at room temperature, 2 months (two months and ten days), DSC, TGA, XRD",converted into a hydrated Form II; also recorded: hydrated to a metastable hydrate crystal form
same,form conversion in heated water,[1],Converts to “I” in 95 °C
"CC(C)O.COc1cc(Nc2c(C#N)cnc3cc(OCCCN4CCN(C)CC4)c(OC)cc23)c(Cl)cc1Cl [Form III, 4-[(2,4-dichloro-5-methoxyphenyl)amino]-6-methoxy-7-[3-(4-methyl-1-piperazinyl)propoxy]-3-quinolinecarbonitrile monoisopropyl alcoholate]",form conversion in heated water,[1],Converts to “I” in 95 °C
"COc1cc(Nc2c(C#N)cnc3cc(OCCCN4CCN(C)CC4)c(OC)cc23)c(Cl)cc1Cl [Form II, 4-[(2,4-dichloro-5-methoxyphenyl)amino]-6-methoxy-7-[3-(4-methyl-1-piperazinyl)propoxy]-3-quinolinecarbonitrile]",form conversion in heated water,[1]; listed as B,Converts to “I” in 95 °C
"COc1cc(Nc2c(C#N)cnc3cc(OCCCN4CCN(C)CC4)c(OC)cc23)c(Cl)cc1Cl [4-[(2,4-dichloro-5-methoxyphenyl)amino]-6-methoxy-7-[3-(4-methyl-1-piperazinyl)propoxy]-3-quinolinecarbonitrile]",solubility enhancement with about 2% Tween80,[2]; about 2% Tween80,about 100 fold
same,solubility,"[2]; about 2% Tween80, aqueous with cosolvent or surfactant or cyclodextrin, solubility with addition of about 2% Tween80, about 2% Tween80 (detergent)",100 to 400 µg/mL
same,solubility,"[2]; aqueous with cosolvent or surfactant or cyclodextrin, solubility with addition of about 0.06% acetic acid (in-situ acetate salt vehicle), about 2% Tween80 plus about 0.06% acetic acid",3000 to 4000 µg/mL
same,solubility,"[2]; de-ionized water, pH 7.2, water, solubility in de-ionized water, partially ionized, resulting pH 7.2",1.8 µg/mL
same,solubility enhancement with about 0.06% acetic acid,[2]; in-situ acetate salt vehicle,~1000 fold
same,solubility,"[2]; pH 8, aqueous buffer, intrinsic (neutral form) solubility, pH 8.0",~0.06 µg/mL
same,solubility,"[2]; stomach acid, simulated gastric fluid, solubility in stomach acid",> 200000 µg/mL
"COc1cc(Nc2c(C#N)cnc3cc(OCCCN4CCN(C)CC4)c(OC)cc23)c(Cl)cc1Cl.O [Form I, 4-[(2,4-dichloro-5-methoxyphenyl)amino]-6-methoxy-7-[3-(4-methyl-1-piperazinyl)propoxy]-3-quinolinecarbonitrile monohydrate]",solubility,"physchem; aqueous with cosolvent or surfactant or cyclodextrin, 2% Tween80/0.5% MC 0.06% acetic acid",4000 µg/mL
same,solubility,"physchem; pH 7.2, water, Water",1.8 µg/mL
same,"Solubility, 2% Tween80/0.5% MC 0.06% acetic acid","[2]; Table 4, (batch size 95, 50, 120, 54, 18.5, 550 g), listed as Pattern A, monohydrate",4.25 (pH 5.7) mg/mL
same,loss of water at 0% relative humidity,[3]; 0% relative humidity for 10 days,does not lose water
same,stability to humidity (XRD and HPLC),[3]; 75% humidity at 40° C. for 3 months,substantially pure and physically unchanged
same,stability to heat (XRD and HPLC),[3]; 90° C. for 2 weeks,substantially pure and physically unchanged
same,stability to light (XRD and HPLC),[3]; 510 foot-candles (~5490 lux) light for two weeks,substantially pure and physically unchanged
same,loss of water on heating,[3]; heated to 90° C. for over 100 hours,does not lose water
same,hygroscopicity,[4],not hygroscopic; also recorded: non-hydroscopic
